Where two headings read alike, the source gives them in different places.
System: HIV-IIIb
Assay: Test A: Antiviral Assays in MT4 Cells
Type: cell-based
Details: MT-4 cells infected with HIV-IIIb (0.004 m.o.i.), 5 days of incubation, CellTiter-Glo chemiluminescence readout, read-out: EC50
Protocol: Test A: Antiviral Assays in MT4 Cells
For the antiviral assay utilizing MT-4 cells, 0.4 μL of […] test concentration of 3-fold serially diluted compound in DMSO was added to 40 μL of cell growth medium (RPMI 1640, 10% FBS, 1% penicillin/Streptomycin, 1% L-Glutamine, 1% HEPES) in each well of 384-well assay plates (10 concentrations) in quadruplicate.
1 mL aliquots of 2×10e6 MT-4 cells are pre-infected for 1 and 3 hrs respectively, @37° C. with 25 μL (MT4) or of either cell growth medium (mock-infected) or a fresh 1:250 dilution of an HIV-IIIb concentrated ABI stock (0.004 m.o.i. for MT4 cells). Infected and uninfected cells are diluted in cell growth medium and 35 uL of 2000 (for MT4) cells is added to each well of the assay plates.
Assay plates were then incubated in a 37° C. incubator. After 5 days of incubation, 25 μl of 2× concentrated CellTiter-Glo™ Reagent (catalog #G7573, Promega Biosciences, Inc., Madison, Wis.) was added to each well of the assay plate. Cell lysis was carried out by incubating at room temperature for 2-3 min and then chemiluminescence was read using the Envision reader (PerkinElmer).

[1] = Human immunodeficiency virus 1, IIIB, MT4, 120 h

Row | SMILES | EC50 [1] [nM] | EC50 [nM]
1 | Cc1c(C(OC(C)(C)C)C(=O)O)c(-c2ccc(Cl)cc2)c2ccccc2c1-c1cnc(N)nc1 (stereo not shown) [Compound 145, 2-(4-(2-Aminopyrimidin-5-yl)-1-(4-chlorophenyl)-3-methylnaphthalen-2-yl)-2-tert-butoxyacetic acid] | 50 | –
2 | Cc1cc2ccc(C#CC3(O)CCN(C)CC3)cc2c(-c2ccc(Cl)cc2)c1C(OC(C)(C)C)C(=O)O (stereo not shown) [Compound 79, 2-tert-Butoxy-2-(1-(4-chlorophenyl)-7-((4-hydroxy-1-methylpiperidin-4-yl)ethynyl)-3-methylnaphthalen-2-yl)acetic acid] | 89 | –
3 | Cc1ccc2c(-c3ccc4c5c(ccnc35)CCO4)c([C@H](OC(C)(C)C)C(=O)O)c(C)cc2c1 [Compound 68B, (S)-2-tert-Butoxy-2-((R)-1-(2,3-dihydropyrano[4,3,2-de]quinolin-7-yl)-3,6-dimethylnaphthalen-2-yl)acetic acid] | – | 5
4 | Cc1c([C@H](OC(C)(C)C)C(=O)O)c(-c2ccc3c4c(ccnc24)CCO3)c2ccccc2c1F (atropisomer, axis not shown) [Compound 178] | 34000 | –
5 | Cc1cc2ccccc2c(-c2cc(F)cc3cccnc23)c1[C@H](OC(C)(C)C)C(=O)O (atropisomer, axis not shown) [Compound 9, (S)-2-tert-Butoxy-2-(1-((R)-6-fluoroquinolin-8-yl)-3-methylnaphthalen-2-yl)acetic acid] | – | 1300
6 | Cc1ccc2ccc(F)c(-c3c([C@H](OC(C)(C)C)C(=O)O)c(C)cc4ccccc34)c2n1 [Compound 17, (S)-2-(tert-Butoxy)-2-((S)-1-(7-fluoro-2-methylquinolin-8-yl)-3-methylnaphthalen-2-yl)acetic acid] | 7700 | –
7 | Cc1cc2c(F)c(C(F)F)ccc2c(-c2ccc3c4c(ccnc24)CCO3)c1[C@H](OC(C)(C)C)C(=O)O [Compound 121, (S)-2-tert-Butoxy-2-((R)-6-(difluoromethyl)-1-(2,3-dihydropyrano[4,3,2-de]quinolin-7-yl)-5-fluoro-3-methylnaphthalen-2-yl)acetic acid] | – | 14
8 | Cc1cc2ccc(C#CC3(N)CCCCC3)cc2c(-c2ccc(Cl)cc2)c1[C@H](OC(C)(C)C)C(=O)O [Compound 100, (S)-2-(7-((1-Aminocyclohexyl)ethynyl)-1-(4-chlorophenyl)-3-methylnaphthalen-2-yl)-2-tert-butoxyacetic acid] | 23 | –
9 | COCc1cc2ccccc2c(-c2ccc(Cl)cc2)c1[C@H](OC(C)(C)C)C(=O)O [Compound 28, (S)-2-tert-Butoxy-2-(1-(4-chlorophenyl)-3-(methoxymethyl)naphthalen-2-yl)acetic acid] | 400 | –
10 | CCC(O)(C#Cc1ccc2cc(C)c(C(OC(C)(C)C)C(=O)O)c(-c3ccc(Cl)cc3)c2c1)CC (stereo not shown) [Compound 82, 2-tert-Butoxy-2-(1-(4-chlorophenyl)-7-(3-ethyl-3-hydroxypent-1-ynyl)-3-methylnaphthalen-2-yl)acetic acid] | 58 | –
11 | Cc1c(C(OC(C)(C)C)C(=O)O)c(-c2ccc(Cl)cc2)c2ccccc2c1-c1ccc(=O)[nH]c1 (stereo not shown) [Compound 144, 2-tert-Butoxy-2-(1-(4-chlorophenyl)-3-methyl-4-(6-oxo-1,6-dihydropyridin-3-yl)naphthalen-2-yl)acetic acid] | 1300 | –
12 | Cc1cc2c(C(N)=O)cc(F)cc2c(-c2ccc3c4c(ccnc24)CCO3)c1[C@H](OC(C)(C)C)C(=O)O [Compound 113B, (S)-2-tert-Butoxy-2-((R)-5-carbamoyl-1-(2,3-dihydropyrano[4,3,2-de]quinolin-7-yl)-7-fluoro-3-methylnaphthalen-2-yl)acetic acid] | – | 460
13 | Cc1cc2c(F)c(C)ccc2c(-c2ccc3c4c(ccnc24)CCO3)c1[C@H](OC(C)(C)C)C(=O)O [Compound 119, (S)-2-tert-Butoxy-2-((R)-1-(2,3-dihydropyrano[4,3,2-de]quinolin-7-yl)-5-fluoro-3,6-dimethylnaphthalen-2-yl)acetic acid] | – | 11

Source: US9102614B2, “Naphth-2-ylacetic acid derivatives to treat AIDS” (Gilead Sciences, Inc., priority 2010, dated 2015)
